Measured values reported in patent US7423114B2, “GD2 ligands” (McGill University, priority 2002, dated 2008).
“Also recorded” adds a separate entry of the source.

Legend:
[1] = test system: EL4 GD2^positive cells; experiment: Intracellular calcium by flow cytometry (Rhod-2 AM); format: cell-based, mouse; settings: PP1 10 μM, EL4 GD2positive cells
Protocol: (c) Effect of GD2 ligands on intracellular calcium concentrations. Resting EL4 GD2positive cells were treated with mAb 3F8 (13 nM), control mouse IgG (mIg) or the calcium ionophore A23187. Intracellular calcium concentration was evaluated over time by flow cytometry using the calcium-sensitive fluorophore Rhod-2 AM. mAb 3F8 can induce strong, sustainable calcium changes withing 5 minutes, while control mouse IgG has no effect. […] Shown are averages of 4 independent assays ± SEM.
Intracellular calcium studies: cells (1×10^6 per sample) were washed with Ringer's solution (155 mM NaCl, 4.5 mM KCl, 2 mM CaCl2, 1 mM MgCl2, 10 mM D-glucose, 5 mM HEPES) and resuspended in 1 ml Ringer's containing 10 μM p56^Lck inhibitor PP1 (BioMol) or vehicle for 15 minutes at 37° C. Then 5 μM Rhod-2AM (Molecular Probes) was then added to the cells and incubated for 30 minutes at room temprature with mild agitation. Cells were washed once in Ringer's, resuspended in 1 ml Ringer's and incubated for 30 minutes, after which cells were stimulated with the indicated ganglioside ligands (or calcium ionophore A23187 as control) and analyzed over a 30 minute period for intracellular Ca^2+ using a flow cytometer (Becton-Dickinson).

[2] = test system: mAb 3F8-GD2 interactions; experiment: Competitive ELISA: inhibition of mAb 3F8 binding to immobilized GD2 by peptides; parameters: key to Activity in SAR and deletion analysis (inactive mark): peptides marked by * are inactive; settings: for % Inhibition of mAb 3F8-GD2 interactions: peptides 50 μg/well, 1 hour before mAb 3F8, immobilized GD2, no peptide = 0%, no mAb 3F8 = 100%, mean ± SEM of 5 experiments; for Activity in SAR and deletion analysis (inactive mark): Table 1 domains/peptides
Protocol: Detection of GD2 or GM1 by ELISA: 12.5 ng/well of ganglioside (GD2, Advanced Immunochemicals or GM1) were immobilized by drying onto PVC 96-well plates (Falcon), followed by blocking with PBS-0.5% BSA for one hour. Then, anti-GD2 mAb 3F8 or biotin-CTB were added for 10 minutes. The plate was washed three times with PBS-0.5% BSA and incubated 60 minutes with horseradish peroxidase (HRP)-conjugated anti-mouse antibody or HRP-conjugated-avidin. After three washes with PBS-0.5% BSA and two with PBS, the colorimetric substrate ABTS was added and the plate read at 414 nm on a Biorad 550 plate reader. Assessment of peptide-GD2 interaction by competitive ELISA: ELISAs were as described above, except that peptides (50 μg/well, in PBS) were added to the wells for 1 hour before anti-GD2 mAb 3F8 or anti-GM1 cholera toxin-B. Selectivity of inhibition is controlled by lack of effect upon GM1-CTB interactions. […] No competitor peptide added or control irrelevant peptide added were standardized as 100% binding. […] Inhibition of mAb 3F8 bindng to immobilized GD2 by peptides, measured by competitive ELISA. No peptide or control peptide treatments are standardized as 0% inhibition. No mAb 3F8 treatment is standardized as 100% inhibition. Average of 5 […] experiments, n=4 in each experiment. Mean±SEM.

[3] = target: T1, human recombinant CD45 (Homo sapiens, UniProt P08575); experiment: In vitro CD45 phosphatase assay; format: biochemical; settings: gangliosides 16.7 μM, pp60Src phosphoregulatory peptide substrate
T1 construct: purchased BioMol
T1 sequence (P08575 26-1306): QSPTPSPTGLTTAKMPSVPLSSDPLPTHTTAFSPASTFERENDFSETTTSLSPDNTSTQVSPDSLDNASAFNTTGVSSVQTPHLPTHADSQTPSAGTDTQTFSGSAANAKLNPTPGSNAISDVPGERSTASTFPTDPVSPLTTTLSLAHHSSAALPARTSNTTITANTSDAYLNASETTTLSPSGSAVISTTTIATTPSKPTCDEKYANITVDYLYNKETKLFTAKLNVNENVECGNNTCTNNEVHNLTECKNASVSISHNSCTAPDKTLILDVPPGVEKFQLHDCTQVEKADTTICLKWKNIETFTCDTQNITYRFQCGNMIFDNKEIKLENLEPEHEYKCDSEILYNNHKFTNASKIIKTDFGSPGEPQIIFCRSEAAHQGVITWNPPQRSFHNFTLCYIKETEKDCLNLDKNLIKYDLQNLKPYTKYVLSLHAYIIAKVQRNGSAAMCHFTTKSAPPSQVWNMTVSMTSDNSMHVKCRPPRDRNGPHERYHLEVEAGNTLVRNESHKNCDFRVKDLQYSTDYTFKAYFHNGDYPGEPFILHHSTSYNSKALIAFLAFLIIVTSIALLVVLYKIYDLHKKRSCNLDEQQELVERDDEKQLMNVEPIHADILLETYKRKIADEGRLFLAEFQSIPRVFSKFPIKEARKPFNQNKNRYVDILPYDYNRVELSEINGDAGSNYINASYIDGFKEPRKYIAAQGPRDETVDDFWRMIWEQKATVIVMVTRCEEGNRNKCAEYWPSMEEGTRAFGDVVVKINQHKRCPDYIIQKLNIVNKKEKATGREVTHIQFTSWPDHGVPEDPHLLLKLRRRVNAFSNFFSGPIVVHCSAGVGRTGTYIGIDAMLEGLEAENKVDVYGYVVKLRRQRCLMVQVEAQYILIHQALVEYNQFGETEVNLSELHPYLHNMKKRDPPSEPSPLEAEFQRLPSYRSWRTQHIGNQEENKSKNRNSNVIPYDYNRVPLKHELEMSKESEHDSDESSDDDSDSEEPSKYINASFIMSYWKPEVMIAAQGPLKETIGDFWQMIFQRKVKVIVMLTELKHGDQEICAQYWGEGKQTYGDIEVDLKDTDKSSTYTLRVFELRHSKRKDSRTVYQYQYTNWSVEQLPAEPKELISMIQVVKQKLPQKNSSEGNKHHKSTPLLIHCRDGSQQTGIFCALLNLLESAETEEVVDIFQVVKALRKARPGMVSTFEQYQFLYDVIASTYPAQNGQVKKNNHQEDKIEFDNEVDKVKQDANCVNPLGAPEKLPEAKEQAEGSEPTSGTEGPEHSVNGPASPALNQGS
Protocol: In vitro CD45 phosphatase assay: human recombinant CD45 enzyme (BioMol, 75 units/well) was preincubated in the absence (negative control) or presence of sodium orthovanadate (positive control) or various gangliosides (16.7 μM) for 20 minutes at room temperature in half-volume 96-well microtiter plates. A CD45-specific substrate (pp60^Src C-terminal phosphoregulatory peptide, 200 μM) was then added for 20 minutes at 30° C., afterwhich the reaction was stopped and quantified with BioMol Green reagent. Plates were read at 620 nm with a Biorad 550 platew reader.

[4] = target: T2, purified p56^Lck tyrosine kinase (Homo sapiens, UniProt P06239); experiment: Effect of exogenous gangliosides on in vitro kinase activity of purified p56Lck; format: biochemical; settings: control assays
T2 construct: purchased Upstate Biotechnology
Protocol: The kinase activity of p56^Lck was evaluated by measuring the incorporation of ^32PO4 in a peptidic p56^Lck substrate over time, with or without GD2 or GM1. Presence of GD2, but not GM1, can positively alter the kinetics of p56^Lck kinase activity. Activity standardized to untreated p56^Lck at the 20 minute time point. Shown are averages of 3 to 5 assays±SEM.
Effect of exogenous GD2 on p56^Lck in vitro kinase assay: chromatographically purified p56^Lck tyrosine kinase (Upstate Biotechnology) was incubated on ice for 10 minutes in kinase buffer (100 mM Tris-HCl, pH 7.2, 125 mM MgCl2, 25 mM MnCl2, 2 mM EGTA, 150 μM ATP, 0.25 mM sodium orthovanadate, 2 mM DTT) with or without ˜20 fold molar excess of ganglioside and 10 μCi [γ-^32P]ATP. Then 10 μg of the Src kinase substrate peptide p34^cdc2(6-20) (Upstate Biothechnology) was added to the mix and incubated at room temperature for the times indicated, after which the reaction was stopped by addition of 100 μM iodoacetamide and by precipitation of proteins with final 10% TCA. The supematant (containing the phosphorylated peptide substrate, not precipitated by TCA) was spotted on a P81 paper (Whatman) and washed three times with 0.75% phosphoric acid and once with acetone. The [^32P]-peptide content was quantified using a Storm 840 phosphorimager with ImageQuant software.

T2 sequence (P06239 whole entry): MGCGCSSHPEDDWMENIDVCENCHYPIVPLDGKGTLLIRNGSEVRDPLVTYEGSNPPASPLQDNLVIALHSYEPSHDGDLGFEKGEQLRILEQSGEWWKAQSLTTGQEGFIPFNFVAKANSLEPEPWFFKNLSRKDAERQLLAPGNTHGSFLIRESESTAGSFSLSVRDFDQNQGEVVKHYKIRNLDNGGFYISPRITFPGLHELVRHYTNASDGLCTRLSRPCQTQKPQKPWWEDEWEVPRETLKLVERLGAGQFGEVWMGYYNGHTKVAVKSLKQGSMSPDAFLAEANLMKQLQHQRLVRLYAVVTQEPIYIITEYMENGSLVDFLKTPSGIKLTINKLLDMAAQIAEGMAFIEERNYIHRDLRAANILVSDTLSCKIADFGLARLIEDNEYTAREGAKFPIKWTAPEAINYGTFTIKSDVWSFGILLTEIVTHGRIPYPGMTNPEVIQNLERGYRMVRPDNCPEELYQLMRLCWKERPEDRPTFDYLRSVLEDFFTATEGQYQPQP

% Inhibition of mAb 3F8-GD2 interactions [2]	Compound	further results
–	Cc1ccc(-c2nn(C(C)(C)C)c3ncnc(N)c23)cc1 [PP1]	Effect of p56Lck inhibitor on mAb 3F8-induction of Ca++ fluxes [1]: markedly decreased; also recorded: partially abolished
40.34 ± 3.17%	C G G I T N Y N C (CGGITNYNC) [Pep 54]	–
30.17 ± 2.69%	C G G I T N Y N S A C (CGGITNYNSAC) [Pep 52]	–
47.60 ± 4.26%	C G GI A N Y N C [Pep 58]	–
48.83 ± 5.01%	C G GI A N Y N T S C [Pep 59]	–
30.94 ± 3.53%	C I A N Y N T C (CIANYNTC) [Pep 60]	–
24.74 ± 3.29%	C I T N Y N S C (CITNYNSC) [Pep 53]	–
14.13 ± 5.43%	C T N Y G V C (CTNYGVC) [Pep 56]	–
12.23 ± 4.41%	C T N Y G V H C (CTNYGVHC) [Pep 55]	–
4.33 ± 5.23%	G G I A N Y N T S (GGIANYNTS) [Pep 57]	Activity in SAR and deletion analysis (inactive mark) [2]: *
44.96 ± 1.57%	G G I T N Y N S A L M (GGITNYNSALM) [Pep 51]	Inhibition of GD2-mAb 3F8 interactions in ELISA, in words [2]: can also act as a competitive inhibitor
–	GD1a	Inhibition of CD45 phosphatase activity [3]: 50%
–	YCTNYGVCY [core matches Pep 56 with added terminal Y residues]	Activity in SAR and deletion analysis (inactive mark) [2]: *
–	YCTNYGVHCY [core matches Pep 55 with added terminal Y residues]	Activity in SAR and deletion analysis (inactive mark) [2]: *
–	phosphatidylcholine	p56Lck kinase activity upon addition of exogenous lipid, in words [4]: not altered
